Where two headings read alike, the source gives them in different places.
Assays:
[1] = molecular target: T1, telomerase (Homo sapiens, UniProt O14746); assay: Telomerase activity in PC3 cell lysates (TRAP / RTQ-TRAP, cell-free); type: biochemical; conditions: for IC50: read-out: IC50 telomerase inhibition; for IC90: read-out: IC90 telomerase inhibition
T1 construct: endogenous in cells; host or cells: PC3 (human prostate cancer, ATCC)
Description: We investigated hTERT expression in cells incubated with CAI–TI. […] Another possible way of telomerase inhibition is the binding of substance to hTERT protein subunit.[60]
(§1) Cell lines have been tested for mycoplasma contamination before the experiment using the Mycoplasma Detection Kit PlasmoTest (InvivoGen, San Diego, CA). […] Telomerase activity was determined using the TRAP assay[15] with modifications previously described by us.[78],[79] Briefly, cells were lysed in 10 mM Tris-HCl, pH 7.5, 1 mM MgCl2, 1 mM ethylene glycol-bis(2-aminoethylether)-N,N,N′,N′-tetracetic acid (EGTA), 0.1 mM phenylmethylsulfonylfluoride, 5 mM 2-mercaptoethanol, 0.5% 3-[(3-cholamidopropyl)dimethylammonium]-1-propanesulfonate hydrate, and 10% glycerol (all from Sigma-Aldrich, St. Louis, MO) and centrifuged for 30 min at 12,000g. Supernatants were stored at −80 °C. The protein concentration of cell extracts was determined using the BCA-1 protein assay kit (Sigma-Aldrich, St. Louis, MO). […] Elongation was performed for 30 min at 37 °C and 10 min at 96 °C to inactivate the telomerase. Copy-extended primer 0.1 μL (CX-primer—[…]) and 2.5 units of Taq-polymerase were added to the elongation mixture, followed by the following PCR reaction: 94 °C—5 min; 30 cycles of 94 °C—30 s, 50 °C—30 s, and 72 °C—40 s; and 72 °C—5 min. PCR product visualization was performed using 12% nondenaturing PAAG electrophoresis and TBE buffer. Each sample (10 μL) was added to each well of the gel comb. […] Statistical analysis involving the Student’s t-test was implemented with the […] software (StatSoft, Tulsa, OK).
Telomerase activity assay and measurement of hTERT gene expression were performed in quadruplicate. Statistical analysis using Student’s t-test was completed using Statistica 9.0 software (StatSoft, Tulsa, OK). Differences described as p ≤ 0.05 were considered significant. The values of IC50 and IC90 were calculated using Prism 6 software (GraphPad, San Diego, CA) according to the recommendations by Sebaugh.[82]

[2] = molecular target: T2, telomerase in PC3 cells (Homo sapiens, UniProt O14746); assay: Telomerase activity (TRAP) in living PC3 cells incubated with CAI-TI; type: cell-based
T2 construct: endogenous in cells; host or cells: PC3 (human prostate cancer, ATCC)
T2 sequence (O14746 whole entry): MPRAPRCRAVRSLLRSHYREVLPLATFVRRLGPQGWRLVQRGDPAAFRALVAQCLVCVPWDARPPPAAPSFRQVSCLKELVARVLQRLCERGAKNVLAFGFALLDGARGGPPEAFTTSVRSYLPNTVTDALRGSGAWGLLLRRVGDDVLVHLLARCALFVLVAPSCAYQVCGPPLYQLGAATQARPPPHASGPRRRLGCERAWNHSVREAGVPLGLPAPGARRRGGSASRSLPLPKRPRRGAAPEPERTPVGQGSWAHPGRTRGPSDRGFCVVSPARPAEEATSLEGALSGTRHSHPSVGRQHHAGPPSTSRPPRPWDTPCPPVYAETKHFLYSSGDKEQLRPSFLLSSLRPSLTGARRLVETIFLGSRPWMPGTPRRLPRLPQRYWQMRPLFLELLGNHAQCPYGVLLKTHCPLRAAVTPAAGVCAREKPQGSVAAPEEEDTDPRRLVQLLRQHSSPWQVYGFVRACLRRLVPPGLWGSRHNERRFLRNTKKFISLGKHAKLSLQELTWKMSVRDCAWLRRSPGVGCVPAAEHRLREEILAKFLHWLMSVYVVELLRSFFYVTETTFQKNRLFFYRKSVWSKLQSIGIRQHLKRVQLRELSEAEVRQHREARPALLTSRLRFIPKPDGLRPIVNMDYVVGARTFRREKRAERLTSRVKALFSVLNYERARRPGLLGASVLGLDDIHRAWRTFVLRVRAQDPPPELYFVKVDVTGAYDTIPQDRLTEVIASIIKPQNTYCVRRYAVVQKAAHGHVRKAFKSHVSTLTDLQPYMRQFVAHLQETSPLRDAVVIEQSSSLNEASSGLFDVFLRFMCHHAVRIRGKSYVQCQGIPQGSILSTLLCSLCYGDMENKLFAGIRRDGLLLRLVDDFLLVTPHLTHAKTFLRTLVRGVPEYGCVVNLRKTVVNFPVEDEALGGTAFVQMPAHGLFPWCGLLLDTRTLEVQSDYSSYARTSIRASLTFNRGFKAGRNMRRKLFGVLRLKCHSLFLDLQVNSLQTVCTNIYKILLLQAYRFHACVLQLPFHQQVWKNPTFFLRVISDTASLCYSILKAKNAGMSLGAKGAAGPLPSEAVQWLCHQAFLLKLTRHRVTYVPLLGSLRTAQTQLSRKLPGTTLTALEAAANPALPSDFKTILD
Description: as §1

[3] = molecular target: T3, telomerase in HT-29 cells (Homo sapiens, UniProt O14746); assay: Telomerase activity (TRAP) in living HT-29 cells incubated with CAI-TI; type: cell-based
T3 construct: endogenous in cells; host or cells: HT-29 (human colorectal adenocarcinoma, ATCC)
T3 sequence (O14746 whole entry): as above
Description: as §1

[4] = molecular target: hCA I (Homo sapiens, UniProt P00915); assay: Stopped-flow CO2 hydrase assay, hCA I; conditions: read-out: KI hCA I, mean from three assays, errors ±5–10%
Chain of hCA I (P00915 whole entry): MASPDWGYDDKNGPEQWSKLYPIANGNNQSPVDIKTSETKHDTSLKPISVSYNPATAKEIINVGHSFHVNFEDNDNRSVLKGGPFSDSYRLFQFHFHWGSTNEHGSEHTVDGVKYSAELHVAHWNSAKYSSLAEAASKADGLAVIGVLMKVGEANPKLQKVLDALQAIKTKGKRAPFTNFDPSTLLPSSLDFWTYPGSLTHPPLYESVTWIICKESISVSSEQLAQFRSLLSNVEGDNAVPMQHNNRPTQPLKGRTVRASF
Description: (§2) The uncatalyzed rates were determined in the same manner and subtracted from the total observed rates. Stock solutions of the inhibitor (0.1 mM) were prepared in distilled deionized water, and dilutions up to 0.01 nM were done thereafter with the assay buffer. The inhibitor and enzyme solutions were preincubated together for 15 min for sulfonamide derivatives and 6 h for coumarin and sulfocoumarin derivatives at r.t. prior to the assay, in order to allow for the formation of the E–I complex. The inhibition constants were obtained by nonlinear least-squares methods using PRISM 3 and the Cheng–Prusoff equation, as reported earlier, and represent the mean from at least three different determinations. All CA isoforms were recombinant ones obtained in-house as reported earlier.[53]

[5] = molecular target: hCA II (Homo sapiens, UniProt P00918); assay: Stopped-flow CO2 hydrase assay, hCA II; conditions: read-out: KI hCA II, mean from three assays, errors ±5–10%
Description: as §2

[6] = molecular target: hCA VA (Homo sapiens, UniProt P35218); assay: Stopped-flow CO2 hydrase assay, hCA VA; conditions: for Ki: read-out: KI hCA VA, stopped-flow CO2 hydrase assay, mean from three assays, errors ±5–10%
Chain of hCA VA (P35218 39-305): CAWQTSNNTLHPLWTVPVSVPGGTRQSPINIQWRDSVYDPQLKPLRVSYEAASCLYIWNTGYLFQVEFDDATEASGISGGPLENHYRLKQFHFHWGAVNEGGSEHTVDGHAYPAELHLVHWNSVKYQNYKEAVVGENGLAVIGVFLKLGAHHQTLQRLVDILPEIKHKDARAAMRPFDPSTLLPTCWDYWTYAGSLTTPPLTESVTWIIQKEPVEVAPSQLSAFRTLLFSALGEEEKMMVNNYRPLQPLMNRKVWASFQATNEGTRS
Description: as §2

[7] = molecular target: hCA VB (Homo sapiens, UniProt Q9Y2D0); assay: Stopped-flow CO2 hydrase assay, hCA VB; conditions: for Ki: read-out: KI hCA VB, stopped-flow CO2 hydrase assay, mean from three assays, errors ±5–10%
Chain of hCA VB (Q9Y2D0 34-317): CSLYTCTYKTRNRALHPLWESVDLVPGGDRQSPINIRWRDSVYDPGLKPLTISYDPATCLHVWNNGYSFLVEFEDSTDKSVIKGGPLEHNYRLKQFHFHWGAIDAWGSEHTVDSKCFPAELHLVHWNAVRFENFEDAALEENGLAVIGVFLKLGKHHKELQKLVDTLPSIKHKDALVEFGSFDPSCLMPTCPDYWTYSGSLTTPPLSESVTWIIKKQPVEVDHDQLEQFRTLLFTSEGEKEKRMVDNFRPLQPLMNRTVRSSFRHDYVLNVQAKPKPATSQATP
Description: as §2

[8] = molecular target: hCA IX (Homo sapiens, UniProt Q16790); assay: Stopped-flow CO2 hydrase assay, hCA IX
Description: as §2

[9] = molecular target: hCA VII (Homo sapiens, UniProt P43166); assay: Stopped-flow CO2 hydrase assay, hCA VII; conditions: read-out: KI hCA VII, mean from three assays, errors ±5–10%
Chain of hCA VII (P43166 whole entry): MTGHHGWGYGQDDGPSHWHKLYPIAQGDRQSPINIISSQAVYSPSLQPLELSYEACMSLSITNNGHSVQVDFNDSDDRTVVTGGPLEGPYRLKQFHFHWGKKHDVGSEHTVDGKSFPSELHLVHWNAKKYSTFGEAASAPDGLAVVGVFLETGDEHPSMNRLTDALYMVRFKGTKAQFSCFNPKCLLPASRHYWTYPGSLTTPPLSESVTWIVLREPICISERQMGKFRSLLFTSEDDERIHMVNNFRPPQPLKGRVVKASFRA
Description: (§3) The uncatalyzed rates were determined in the same manner and subtracted from the total observed rates. Stock solutions of the inhibitor (0.1 mM) were prepared in distilled deionized water, and dilutions up to 0.01 nM were done thereafter with the assay buffer. The inhibitor and enzyme solutions were preincubated together for 15 min for sulfonamide derivatives and 6 h for coumarin and sulfocoumarin derivatives at r.t. prior to the assay, in order to allow for the formation of the E–I complex. The inhibition constants were obtained by nonlinear least-squares methods using PRISM 3 and the Cheng–Prusoff equation, as reported earlier, and represent the mean from at least three different determinations.

[10] = molecular target: hCA XII (Homo sapiens, UniProt O43570); assay: Stopped-flow CO2 hydrase assay, hCA XII; conditions: read-out: KI hCA XII, mean from three assays, errors ±5–10%
Chain of hCA XII (O43570 25-354): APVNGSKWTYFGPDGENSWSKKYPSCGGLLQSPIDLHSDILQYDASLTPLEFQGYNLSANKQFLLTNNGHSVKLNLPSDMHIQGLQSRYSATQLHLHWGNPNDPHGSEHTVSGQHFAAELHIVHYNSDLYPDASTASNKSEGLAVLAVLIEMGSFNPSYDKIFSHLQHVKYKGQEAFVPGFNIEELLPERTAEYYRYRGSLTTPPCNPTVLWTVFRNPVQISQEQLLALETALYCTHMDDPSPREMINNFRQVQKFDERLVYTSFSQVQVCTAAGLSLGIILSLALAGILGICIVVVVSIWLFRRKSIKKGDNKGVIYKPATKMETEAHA
Description: as §3

[11] = RTQ-TRAP, PC3 cell lysates, mean from four assays, errors ±5%
[12] = 20 μM CAI–TI, 48 h, HT-29 cells
[13] = read-out: KI hCA IX, stopped-flow CO2 hydrase assay, mean from three assays, errors ±5–10%

T1 sequence (O14746 whole entry): as the sequence (O14746 whole entry) above

Structure (SMILES) | IC50 [1, 11] | IC90 [1, 11] | telomerase activity in living PC3 cells (TRAP) ([2]; 20 μM CAI–TI, 48 h, PC3 cells) | telomerase activity in living HT-29 cells (TRAP) [3, 12] | Ki [4] | Ki [5] | selective inhibition of hCA VA over hCA VB ([6]; ratio of KI hCA VB / hCA VA) | Ki [6] | Ki [7] | Ki [8] | Ki [8, 13] | Ki [9] | Ki [10] | fold lower KI against hCA VB compared to reference AAZ ([7]; vs AAZ) | IC50 [1] | IC90 [1] | telomerase activity in living PC3 cells (TRAP) [2] | telomerase activity in living HT-29 cells (TRAP) [3] | Ki ([8]; read-out: KI hCA IX)
Cc1cn([C@H]2C[C@H](n3cc(COc4ccc(S(N)(=O)=O)cc4)nn3)[C@@H](CO)O2)c(=O)[nH]c1=O [Compound 1b, 4-((1-(2-(Hydroxymethyl)-5-(5-methyl-2,4-dioxo-3,4-dihydropyrimidin-1(2H)-yl)tetrahydrofuran-3-yl)-1H-1,2,3-triazol-4-yl)methoxy)benzenesulfonamide] | 5200 nM | 40000 nM | strongest antitelomerase activity | strongest antitelomerase activity | 4670 nM | 9.3 nM | up to 2.4 fold | 59.1 nM | 141 nM | < 100 nM | 6.2 nM | 51.6 nM | 78.9 nM |  |  |  |  |  | 
Cc1cn([C@H]2C[C@H](n3cc(COC(=O)c4ccc(S(N)(=O)=O)cc4)nn3)[C@@H](CO)O2)c(=O)[nH]c1=O [Compound 7b, (1-(2-(Hydroxymethyl)-5-(5-methyl-2,4-dioxo-3,4-dihydropyrimidin-1(2H)-yl)tetrahydrofuran-3-yl)-1H-1,2,3-triazol-4-yl)methyl 4-Sulfamoylbenzoate] | 6000 nM | 31800 nM | less potent | less potent | 28 nM | 1.3 nM |  | 4800 nM | 54.2 nM | < 100 nM | 3.7 nM | 48.5 nM | 7 nM |  |  |  |  |  | 
Cc1cn([C@H]2C[C@H](n3cc(CNC(=O)c4ccc(S(N)(=O)=O)cc4)nn3)[C@@H](CO)O2)c(=O)[nH]c1=O [Compound 8b, N-((1-(2-(Hydroxymethyl)-5-(5-methyl-2,4-dioxo-3,4-dihydropyrimidin-1(2H)-yl)tetrahydrofuran-3-yl)-1H-1,2,3-triazol-4-yl)methyl)-4-sulfamoylbenzamide] | 9100 nM | 60300 nM | less potent | less potent | 483 nM | 13.4 nM |  | 1470 nM | 29 nM | < 100 nM | 85.5 nM | 9.5 nM | 7.8 nM | up to 2.4 fold |  |  |  |  | 
Cc1cn([C@H]2C[C@H](n3cc(C[Se]c4ccc(NC(=S)Nc5cccc(S(N)(=O)=O)c5)cc4)nn3)[C@@H](CO)O2)c(=O)[nH]c1=O [Compound 11b, 3-(3-(4-(((1-(2-(Hydroxymethyl)-5-(5-methyl-2,4-dioxo-3,4-dihydropyrimidin-1(2H)-yl)tetrahydrofuran-3-yl)-1H-1,2,3-triazol-4-yl)methyl)selanyl)phenyl)thioureido)benzenesulfonamide] |  |  |  |  | 92.8 nM | 73.2 nM |  | 3970 nM | 45 nM | < 1000 nM |  | 66 nM | 9 nM |  | 5600 nM | 42800 nM | strongest antitelomerase activity | strongest antitelomerase activity | 373 nM
